Laboratory results: PubChem BioAssay (NCI)
Several values for one entry are separate records, joined by “and”; a condition that tells them apart may be missing. Equal entries are not always repeated.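 Cells were grown in 96-well plates and exposed to each compound for 48 hours at five concentrations; endpoints were interpolated linearly between bracketing concentrations, or set to the highest concentration if not reached. GI50 marks 50% less growth. TGI: concentration producing complete growth inhibition.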

Key:
Experiment in all cases: growth of human tumour cells (NCI), 48 h
[1] = tested on: DLD-1 colon
[2] = tested on: HL-60(TB) leukemia
[3] = tested on: HOP-92 NSCLC
[4] = tested on: KM20L2 colon
[5] = tested on: OVCAR-3 ovarian
[6] = tested on: RPMI-8226 leukemia
[7] = tested on: BT-549 breast
[8] = tested on: SNB-78 CNS
[9] = tested on: LXFL 529 NSCLC
[10] = tested on: IGROV1 ovarian

SMILES	GI50 [1]	TGI [1]	GI50 [2]	TGI [2]	GI50 [3]	TGI [3]	GI50 [4]	TGI [4]	GI50 [5]	TGI [5]	GI50 [6]	TGI [6]	GI50 [7]	TGI [7]	GI50 [8]	TGI [8]	GI50 [9]	TGI [9]	GI50 [10]	TGI [10]
[Au+].[Au+].[Au+].[c-]1nccn1Cc1ccccc1.[c-]1nccn1Cc1ccccc1.[c-]1nccn1Cc1ccccc1	1.96 µM	3.7 µM	3.16 µM	16 µM	2.34 µM	4.25 µM	26.9 µM	> 73 µM	2.33 µM	5.27 µM	3.9 µM	> 100 µM	5.35 µM	42.5 µM	2.84 µM	8.63 µM	1.83 µM	3.22 µM	3.48 µM	7.92 µM
CC(=O)c1sc(-c2nc(C)c(C(=O)/C=C\c3ccc(/C=C\C(=O)c4sc(-c5nc(C)c(C(C)=O)s5)nc4C)cc3)s2)nc1C	–	> 100 µM	–	> 100 µM	–	–	–	> 100 µM	–	> 100 µM	–	> 100 µM	–	–	–	> 100 µM	–	> 100 µM	–	> 100 µM
C[n+]1cc(C(O)c2ccc3c(c2)OCO3)c2ccccc2c1 (configuration not stated)	–	> 100 µM	–	–	–	–	–	> 100 µM	–	> 100 µM	–	98.8 µM	–	–	–	> 100 µM	–	–	–	> 100 µM
CC(C)(C=O)CC(C#N)/C(=N\NC(N)=O)C(=O)Nc1ccccc1C(N)=O (configuration not stated)	–	–	–	> 100 µM	–	> 100 µM	–	> 100 µM	–	> 100 µM	–	> 100 µM	–	–	–	> 100 µM	–	> 100 µM	–	> 100 µM
Cc1cc(C)c(C2[C@H]3C(=O)N(c4ccc(Cc5ccc(N6C(=O)[C@@H]7ON(c8ccccc8)C(c8c(C)cc(C)cc8C)[C@@H]7C6=O)cc5)cc4)C(=O)[C@H]3ON2c2ccccc2)c(C)c1 (some centres not stated)	–	> 100 µM	–	> 100 µM	–	–	–	> 100 µM	–	> 100 µM	–	> 100 µM	–	–	–	> 100 µM	–	> 100 µM	–	> 100 µM
C[C@@]12CCCc3coc(c31)C(=O)c1cc3c(cc12)C(=O)C=CC3=O	> 1 µM	> 1 µM and 6.07 µM	> 1 µM	> 100 µM	> 1 µM	> 1 µM and 14.6 µM	> 1 µM	> 1 µM and 35.1 µM	> 1 µM	> 1 µM and 41.8 µM	> 1 µM	> 1 µM and 35 µM	–	–	–	> 1 µM	> 1 µM	> 1 µM and 28.2 µM	> 1 µM	> 1 µM and 37.1 µM
O=C1c2ccc3c4ccccc4n(Cc4ccccc4)c3c2C(=O)N1c1ccccc1	–	37.3 µM	–	> 44.7 µM	–	26.9 µM	–	45.2 µM	–	11.9 µM	–	40.1 µM	–	–	–	71.7 µM	–	27.7 µM	–	35.7 µM
O=C1[C@H]2ON(c3ccccc3)C(c3ccc(Cl)cc3)[C@H]2C(=O)N1c1ccc(Cc2ccc(N3C(=O)[C@@H]4ON(c5ccccc5)C(c5ccc(Cl)cc5)[C@@H]4C3=O)cc2)cc1 (some centres not stated)	–	> 100 µM	–	> 100 µM	–	–	–	> 100 µM	–	> 100 µM	–	> 100 µM	–	–	–	> 100 µM	–	> 100 µM	–	> 100 µM
COc1ccc2[nH]c3c4c(ccc3c2c1)C(=O)C=CC4=O	–	8.78 µM	–	1.11 µM	–	7.64 µM	–	43.1 µM	–	20.8 µM	–	10.4 µM	–	84.9 µM	–	37.1 µM	–	14.8 µM	–	26.4 µM
COC(=O)CCC(=O)CC1CC(=O)C2CCCN12 (configuration not stated)	–	> 100 µM	–	> 100 µM	–	> 100 µM	–	> 100 µM	–	> 100 µM	–	> 100 µM	–	–	–	> 100 µM	–	> 100 µM	–	> 100 µM
COc1ccc(C2c3cc(OC)c(OC)cc3C(Cc3ccc([N+](=O)[O-])cc3)C2c2ccc([N+](=O)[O-])cc2)cc1OC (configuration not stated)	–	> 100 µM	–	> 100 µM	–	> 100 µM	–	> 100 µM	–	> 100 µM	–	> 100 µM	–	–	–	> 100 µM	–	> 100 µM	–	> 100 µM
C1C[OH+]CCNCC[OH+]CC[OH+]CCN1.[Cl-].[Pt+4]	> 100 µM	> 100 µM	> 100 µM	> 100 µM	> 100 µM	> 100 µM	> 100 µM	> 100 µM	> 100 µM	> 100 µM	> 100 µM	> 100 µM	–	–	–	–	> 100 µM	> 100 µM	> 100 µM	> 100 µM
COc1cc(C)c2c(c1C)OC(=O)c1c(C)c(Cl)c(O)c(C=O)c1O2	–	59 µM	–	22 µM	–	–	–	69.5 µM	–	9.5 µM	–	33.4 µM	–	–	–	50.6 µM	–	43.3 µM	–	72.7 µM
O=c1[nH]c2cc(Cl)ccc2nc1/C(=N\O)C(O)c1ccc(Cl)cc1Cl (configuration not stated)	–	> 100 µM	–	> 100 µM	–	> 100 µM	–	> 100 µM	–	> 100 µM	–	> 100 µM	–	–	–	> 100 µM	–	> 100 µM	–	> 100 µM
Cc1cc(NS(=O)(=O)c2ccc(Nc3c4ccccc4nc4c(C(=O)NCCN(C)C)cccc34)cc2)no1	–	> 100 µM	–	0.472 µM	–	–	–	> 100 µM	–	–	–	–	–	–	–	80.4 µM	–	> 100 µM	–	22.1 µM
CCOC(=N)CC(=O)Nc1cccc(C)c1C	–	> 100 µM	–	> 100 µM	–	–	–	> 100 µM	–	> 100 µM	–	–	–	–	–	> 100 µM	–	> 100 µM	–	> 100 µM
CCCCOC(=O)NC(=O)c1cn(CCCOC(=O)NCCCCCCNC(=O)OCCCn2cc(C(=O)NC(=O)OCCCC)c(=O)[nH]c2=O)c(=O)[nH]c1=O	–	> 100 µM	–	> 100 µM	–	> 100 µM	–	> 100 µM	–	> 100 µM	–	> 100 µM	–	–	–	> 100 µM	–	> 100 µM	–	> 100 µM
